# Measured values from paper PMC5785997, “2-Phenylquinazolinones as dual-activity tankyrase-kinase inhibitors” (Scientific Reports, 2018).
# Read-outs that look alike come from different tables or passages of the source.
# Tests used:
# Format in all cases: biochemical
# Akt = experiment: Kinase functional assay (mobility shift), Akt; settings: for IC50: dose response; for Akt inhibition-%: Table 1
# TNKS2 = TNKS2 (Homo sapiens, UniProt Q9H2K2); experiment: NAD+ quantification activity assay, TNKS2
# Experimental: The activity assay used to measure the potency of the compounds against TNKS2 is based on the quantification of NAD^+[38]. The reactions were carried out in 96-well plate (Greiner bio-one, U-shaped) and the conditions were the same as reported earlier (Table S5)[24].
# The compounds were stored in 100% DMSO at −20 °C. All the compounds were diluted in the TNKS2 assay buffer (50 mM Bis-Tris Propane, 0.5 mM TCEP, 0.01% Triton-100x). Control reactions were used to exclude the effect of compound fluorescence and quenching from the calculations. […] The pIC50 values were calculated and fitted with nonlinear regression using 4-parameters with GraphPad Prism (version 5.0 for windows).
# Protein (nM) NAD+ (nM) Incubation Buffer
# Kinase [ATP] Substrate Incubation Reaction buffer
# CDK9 = CDK9 (Homo sapiens, UniProt P50750); experiment: Kinase functional assay (mobility shift), CDK9; settings: for CDK9 inhibition-%: Table 1
# p38α = p38α (Homo sapiens, UniProt Q16539); experiment: Kinase functional assay (mobility shift), p38α; settings: for p38 inhibition-%: Table 1
# ERK2 = ERK2 (Homo sapiens, UniProt P28482); experiment: Kinase functional assay (mobility shift), ERK2 (p42); settings: for p42 inhibition-%: Table 1
# human CK2α-1 = molecular target: T1, human CK2α-1 (Homo sapiens, UniProt P68400); experiment: ADP-Glo kinase assay, CK2; settings: for CK2 inhibition-%: Table 1
# T1 construct: purchased Promega V4,482
# Experimental: The kinase functional assays were performed using a combination of kinase and 1.5 μM peptide substrate in the presence of ATP. The reaction mixture was analyzed on the Caliper LabChip 3,000 (Caliper, Hopkinton, MA) by the electrophoretic mobility shift of the fluorescent substrate and phosphorylated product. For the inhibition of human CK2α-1, the experiments were carried out with ADP-Glo kinase Assay Kit (Promega V9,101). Assays are described in detail in the Supplementary Methods and Table S6. […]
# Dose-response curves were generated to determine the concentration required to inhibit 50% of kinase activity (IC50). Staurosporine (Invitrogen BP2,451) was included as a positive control of each enzymatic assay. The profiling of the kinases was done at 1 and at 10 μM of the compound.
# For the inhibition of human CK2α-1, the experiments were carried out in a white 384-microplate low flange (Corning 3,572) with ADP-Glo kinase Assay Kit (Promega V9101) and CK2α-1 Kinase Enzyme System (Promega V4,482). The test compounds and standard staurosporine (Invitrogen BP2451), 25 ng/well CK2α-1 kinase and 50 µM ATP were added in a final volume of 10 µl/well using reaction buffer supplied by kit as assay buffer. The reaction mixture was incubated in gentle shaking for 60 minutes at room temperature. After the incubation 10 µl of ADP-Glo reagent was added and incubated in gentle shaking for 40 minutes at room temperature. Finally 20 µl of Kinase Detection Reagent was added and the plate was incubated on a shaker for 30 minutes at room […]
# temperature. […]
# GSK3β = GSK3β (Homo sapiens, UniProt P49841); experiment: Kinase functional assay (mobility shift), GSK3β; settings: for GSK3β inhibition-%: Table 1
# [1] = dose response, read-out: CDK9 IC50
# [2] = Table 1, read-out: TNKS2 IC50 (shown for comparison)
# Sequence of ERK2 (P28482 whole entry, species assumed): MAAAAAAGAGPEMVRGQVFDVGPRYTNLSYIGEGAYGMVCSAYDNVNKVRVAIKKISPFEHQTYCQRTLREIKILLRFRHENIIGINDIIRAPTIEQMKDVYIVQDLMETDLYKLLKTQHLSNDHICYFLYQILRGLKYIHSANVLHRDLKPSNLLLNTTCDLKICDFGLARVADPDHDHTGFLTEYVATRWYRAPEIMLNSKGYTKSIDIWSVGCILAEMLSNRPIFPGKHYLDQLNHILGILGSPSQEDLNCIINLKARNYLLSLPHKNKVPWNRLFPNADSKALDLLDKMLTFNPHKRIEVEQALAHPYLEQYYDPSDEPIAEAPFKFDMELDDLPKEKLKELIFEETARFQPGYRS
# Sequence of p38α (Q16539 whole entry): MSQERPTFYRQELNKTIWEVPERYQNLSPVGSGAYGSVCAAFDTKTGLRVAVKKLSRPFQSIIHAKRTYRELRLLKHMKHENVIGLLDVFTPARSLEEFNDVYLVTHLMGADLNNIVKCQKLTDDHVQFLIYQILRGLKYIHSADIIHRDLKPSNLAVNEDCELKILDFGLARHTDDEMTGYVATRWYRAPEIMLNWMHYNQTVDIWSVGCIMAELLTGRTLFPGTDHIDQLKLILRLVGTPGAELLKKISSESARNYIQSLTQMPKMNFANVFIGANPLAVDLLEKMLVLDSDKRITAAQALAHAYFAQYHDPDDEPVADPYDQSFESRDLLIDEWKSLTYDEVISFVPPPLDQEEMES
# T1 sequence (P68400 whole entry): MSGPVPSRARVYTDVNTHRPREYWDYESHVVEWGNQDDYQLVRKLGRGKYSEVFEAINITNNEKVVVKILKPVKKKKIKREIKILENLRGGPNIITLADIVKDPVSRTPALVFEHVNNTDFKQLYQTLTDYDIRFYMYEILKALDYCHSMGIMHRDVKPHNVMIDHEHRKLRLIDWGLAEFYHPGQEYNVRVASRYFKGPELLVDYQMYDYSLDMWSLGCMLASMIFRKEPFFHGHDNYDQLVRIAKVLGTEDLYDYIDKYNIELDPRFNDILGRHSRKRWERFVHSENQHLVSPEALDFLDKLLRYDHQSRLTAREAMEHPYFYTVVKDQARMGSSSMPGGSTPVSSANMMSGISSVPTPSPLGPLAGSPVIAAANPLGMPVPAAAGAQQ
# Sequence of CDK9 (P50750 whole entry, species assumed): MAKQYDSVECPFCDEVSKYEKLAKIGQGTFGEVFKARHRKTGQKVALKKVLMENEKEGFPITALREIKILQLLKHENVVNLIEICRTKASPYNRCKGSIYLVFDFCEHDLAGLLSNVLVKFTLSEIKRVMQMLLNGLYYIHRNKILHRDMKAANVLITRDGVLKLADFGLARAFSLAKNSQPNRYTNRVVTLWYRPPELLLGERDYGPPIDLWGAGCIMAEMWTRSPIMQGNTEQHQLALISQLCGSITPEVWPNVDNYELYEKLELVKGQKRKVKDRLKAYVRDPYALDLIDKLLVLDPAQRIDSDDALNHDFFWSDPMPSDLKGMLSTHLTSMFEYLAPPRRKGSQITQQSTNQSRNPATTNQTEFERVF
# Sequence of CDK9 (O60563 whole entry partner, species assumed): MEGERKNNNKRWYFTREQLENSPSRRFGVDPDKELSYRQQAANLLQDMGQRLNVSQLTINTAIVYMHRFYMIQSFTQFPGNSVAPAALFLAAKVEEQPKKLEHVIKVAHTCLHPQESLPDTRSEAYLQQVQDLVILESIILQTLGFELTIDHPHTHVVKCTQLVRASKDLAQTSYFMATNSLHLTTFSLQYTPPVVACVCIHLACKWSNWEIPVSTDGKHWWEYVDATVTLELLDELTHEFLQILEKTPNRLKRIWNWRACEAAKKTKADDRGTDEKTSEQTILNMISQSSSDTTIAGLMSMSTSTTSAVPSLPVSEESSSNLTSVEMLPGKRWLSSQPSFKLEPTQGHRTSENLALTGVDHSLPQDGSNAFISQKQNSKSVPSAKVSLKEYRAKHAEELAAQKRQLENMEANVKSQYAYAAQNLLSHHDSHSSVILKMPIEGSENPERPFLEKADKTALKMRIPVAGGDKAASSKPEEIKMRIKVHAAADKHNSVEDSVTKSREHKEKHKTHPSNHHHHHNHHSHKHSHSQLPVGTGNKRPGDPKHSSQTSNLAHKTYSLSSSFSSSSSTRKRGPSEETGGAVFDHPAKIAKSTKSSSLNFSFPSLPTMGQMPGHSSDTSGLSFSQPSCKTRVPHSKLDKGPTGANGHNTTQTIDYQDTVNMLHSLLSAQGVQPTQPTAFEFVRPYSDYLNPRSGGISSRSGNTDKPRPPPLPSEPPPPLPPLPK
# Sequence of GSK3β (P49841 whole entry, species assumed): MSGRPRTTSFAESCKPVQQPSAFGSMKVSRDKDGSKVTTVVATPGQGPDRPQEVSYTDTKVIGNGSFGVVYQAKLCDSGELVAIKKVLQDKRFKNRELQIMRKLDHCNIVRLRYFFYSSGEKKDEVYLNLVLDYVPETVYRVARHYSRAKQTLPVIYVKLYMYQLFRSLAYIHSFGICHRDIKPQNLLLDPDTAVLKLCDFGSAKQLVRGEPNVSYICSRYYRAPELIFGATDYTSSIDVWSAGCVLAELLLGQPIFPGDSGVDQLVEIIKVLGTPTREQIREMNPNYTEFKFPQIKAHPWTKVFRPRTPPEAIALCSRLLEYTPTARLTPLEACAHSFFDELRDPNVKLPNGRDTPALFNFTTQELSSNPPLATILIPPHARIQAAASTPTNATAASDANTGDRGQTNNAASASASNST
# Sequence of TNKS2 (Q9H2K2 959-1164): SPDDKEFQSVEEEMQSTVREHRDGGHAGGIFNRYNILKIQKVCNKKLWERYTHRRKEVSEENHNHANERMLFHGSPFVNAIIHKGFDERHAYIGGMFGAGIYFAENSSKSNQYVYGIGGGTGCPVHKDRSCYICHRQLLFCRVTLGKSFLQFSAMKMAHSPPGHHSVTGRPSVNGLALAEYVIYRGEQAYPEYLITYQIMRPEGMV
compound,measurement,setting,value
CN(CCO)c1ccc(-c2nc3cc(Cl)ccc3c(=O)[nH]2)cc1 [Compound 41],IC50,Akt,14.7 µM
same,IC50,"TNKS2; TNKS2 IC50, NAD+ 500 nM",0.66 µM
same,IC50,CDK9; [1],6.2 µM
O=c1[nH]c(-c2ccc(O)c(O)c2O)nc2ccccc12 [Compound 24],IC50,"TNKS2; TNKS2 IC50, NAD+ 500 nM",0.44 µM
O=c1[nH]c(-c2ccc(-c3ccccn3)cc2)nc2ccccc12 [Compound 29],IC50,"TNKS2; TNKS2 IC50, NAD+ 500 nM",0.016 µM
CCN(CC)c1ccc(-c2nc3ccccc3c(=O)[nH]2)cc1 [C00003],Akt inhibition-%,Akt; 10 µM compound,48%
same,IC50,TNKS2; [2],0.01 µM
same,CDK9 inhibition-%,CDK9; 10 µM compound,16%
same,p38 inhibition-%,p38α; 10 µM compound,20%
same,p42 inhibition-%,ERK2; 10 µM compound,18%
same,CK2 inhibition-%,human CK2α-1; 10 µM compound,2%
same,GSK3β inhibition-%,GSK3β; 10 µM compound,4%
O=C(O)c1ccc2c(=O)[nH]c(-c3cccc(C(F)(F)F)c3)nc2c1 [Compound 39],IC50,"TNKS2; TNKS2 IC50, NAD+ 500 nM",542 µM
O=c1[nH]c(-c2ccc3[nH]ncc3c2)nc2ccccc12 [C00001],Akt inhibition-%,Akt; 10 µM compound,1%
same,IC50,TNKS2; [2],0.4 µM
same,CDK9 inhibition-%,CDK9; 10 µM compound,34%
same,p38 inhibition-%,p38α; 10 µM compound,3%
same,p42 inhibition-%,ERK2; 10 µM compound,14%
same,CK2 inhibition-%,human CK2α-1; 10 µM compound,12%
same,GSK3β inhibition-%,GSK3β; 10 µM compound,57%
Nc1ccc(-c2nc3cc(Cl)ccc3c(=O)[nH]2)cc1 [Compound 42],AKT (% Inhib.),"Akt; 10 µM compound, Table S4",89 ± 1%
same,IC50,Akt,1.6 µM
same,IC50,"TNKS2; TNKS2 IC50, NAD+ 500 nM",1.05 µM
same,IC50,"TNKS2; TNKS2 IC50, as quoted in text",1.1 µM
same,inhibition at 1 µM,"CDK9; 1 µM compound, Table S3, read-out: CDK9 (% Inhib.)",17 ± 5%
same,inhibition at 10 µM,"CDK9; 10 µM compound, Table S4, read-out: CDK9 (% Inhib.)",78 ± 2%
same,IC50,CDK9; [1],3.4 µM
same,inhibition at 1 µM,"p38α; 1 µM compound, Table S3, read-out: p38α (% Inhib.)",5 ± 1%
same,inhibition at 10 µM,"p38α; 10 µM compound, Table S4, read-out: p38α (% Inhib.)",45 ± 1%
same,inhibition at 1 µM,"ERK2; 1 µM compound, Table S3, read-out: ERK2 (% Inhib.)",14 ± 1%
same,inhibition at 10 µM,"ERK2; 10 µM compound, Table S4, read-out: ERK2 (% Inhib.)",51 ± 1%
same,inhibition at 1 µM,"human CK2α-1; 1 µM compound, Table S3, read-out: CK2 (% Inhib.)",1 ± 1%
same,inhibition at 10 µM,"human CK2α-1; 10 µM compound, Table S4, read-out: CK2 (% Inhib.)",2 ± 2%
same,inhibition at 1 µM,"GSK3β; 1 µM compound, Table S3, read-out: GSK3β (% Inhib.)",4 ± 1%
same,inhibition at 10 µM,"GSK3β; 10 µM compound, Table S4, read-out: GSK3β (% Inhib.)",41 ± 1%
O=c1[nH]c(-c2cccc3cnccc23)nc2ccccc12 [Compound 19],IC50,"TNKS2; TNKS2 IC50, NAD+ 500 nM",42.3 µM
CN(CCO)c1ccc(-c2nc3ccccc3c(=O)[nH]2)cc1 [C00005],IC50,Akt,13.3 µM
same,IC50,TNKS2; [2],0.016 µM
same,IC50,"CDK9; compound does not completely inhibit the enzyme at concentrations used, IC50 extrapolated by the analysis software, read-out: CDK9 IC50 (extrapolated)",16.1 µM
COc1ccc(-c2nc3cc(Cl)ccc3c(=O)[nH]2)cc1 [Compound 40],IC50,"TNKS2; TNKS2 IC50, NAD+ 500 nM",2.46 µM
COc1ccccc1-c1nc(O)c2ccccc2n1 [Compound 18],IC50,"TNKS2; TNKS2 IC50, NAD+ 500 nM",10 µM
Oc1nc(-c2ccccc2F)nc2ccccc12 [Compound 26],IC50,"TNKS2; TNKS2 IC50, NAD+ 500 nM",4.77 µM
O=c1[nH]c(-c2ccc(N3CCCCC3)cc2)nc2ccccc12 [C00002],Akt inhibition-%,Akt; 10 µM compound,2%
same,IC50,TNKS2; [2],0.015 µM
same,CDK9 inhibition-%,CDK9; 10 µM compound,31%
same,p38 inhibition-%,p38α; 10 µM compound,3%
same,p42 inhibition-%,ERK2; 10 µM compound,3%
same,CK2 inhibition-%,human CK2α-1; 10 µM compound,1%
same,GSK3β inhibition-%,GSK3β; 10 µM compound,11%
O=c1[nH]c(-c2ccc(N3CCOCC3)cc2)nc2ccccc12 [Compound 31],IC50,"TNKS2; TNKS2 IC50, NAD+ 500 nM",0.017 µM
O=c1[nH]c(-c2ccccc2Cl)nc2ccccc12 [Compound 25],IC50,"TNKS2; TNKS2 IC50, NAD+ 500 nM",243 µM
CC(C)CCOc1ccc(-c2nc3ccccc3c(=O)[nH]2)cc1 [Compound 37],IC50,"TNKS2; TNKS2 IC50, NAD+ 500 nM",0.046 µM
